From patent US8609590B2, “Synergistic combination of flumetsulam with thiabendazole” (Dow Global Technologies LLC, priority 2010, dated 2013)

Legend:
Type in all cases: cell-based
[1] = system: Cp + To + Ta + Cs + Ck + Nc; experiment: Algal efficacy testing, modified ASTM 5589, paint film (Diclosulam study); conditions: for % inhibition: at the total conc given for the same sample; for Total conc: end-point concentration in paint used for SI
Experimental: (§1) Sample preparation: A single or blend of biocides was post added into white acrylic latex paint free of biocides to give a maximum total active ingredient/s concentration tested. This paint was then diluted with a biocide free acrylic latex paint to give targeted concentrations for the testing. Depending on the type of biocide blends tested, the total biocides concentrations varies from 200 to 5000 ppm. After biocides addition or dilution, each sample was hand mixed for at least a minute until uniformity is achieved. Each of the paint samples as well as a control sample (containing no biocide) were used to prepare films on black plastic-vinyl chloride/acetate copolymer panels (LENETA, Mahwah, N.J.) using a 3 mil (0.0762 mm) bird bar applicator. The panels were thoroughly dried for at least 2 days avoiding direct exposure to sunlight. Square discs (0.5 inch; 1.27 cm^2) were cut out from each panel and were used as the substrate for fungal and algal efficacy tests. This sample size allowed for an agar border when the sample disc was placed into the well of the test plate. Each sample was tested in duplicate
(§2) The appropriate media (BOLD'S 3N for Chlorophytes, BG-11 for Cyanobacteria, and PDA for fungi) were used to support microbial growth. The test plates were maintained at room temp (25° C.-26° C.), in a cycled light-dark environment, for four weeks for algae. Plates for fungal challenge tests were maintained at 30 C for four weeks. At the end of the incubation period the samples were scored for percent area covered by visible microbial growth.
(§3) ASTM 5589 is a standard accelerated test method for determining resistance of various coatings (including paints) to algal defacement. To accommodate for high-throughput screening, this method was scaled down from petri plates to 6-well plates. A single coupon was placed with a pair of sterile forceps at the center of the agar plug (on top) with the painted surface facing upwards. Algal inoculums were prepared by mixing equal concentrations (1×10^6 cfu/ml) and equal volumes (depending on number of samples to be inoculated) of like growing organisms.
(§4) In Diclosulam+various IT synergy study, only two pools of mixed algae were prepared; Gloeocapsa sp. and Oscillatoria sp. grown on BG-11 media and Chlorella sp., Chlorella kessleri, Nostoc commune, Trentepohlia aurea, Tretepohlia odorata, and Calotrix parientina grown on Bold media
Each well that contains a tested coupon was inoculated with 400 μl of organism mixture (1×10^6 cfu/ml) making sure that the whole surface (paint film as well as the agar surrounding it) was evenly covered. […] The total area covered was evaluated at the end of each week according to percent area covered in 5% increments.
(§5) The SI is calculated based on F. C. […]

[2] = system: Aa + Tv + An + Pf + Ap + Ch; experiment: Fungal efficacy testing, modified ASTM 5590, paint film (Diclosulam study, single fungal pool); conditions: for % inhibition: at the total conc given for the same sample; for Total conc: end-point concentration in paint used for SI
Experimental: as §1, §2
ASTM 5590 is a standard accelerated test method for determining resistance of various coatings (including paints) to fungal defacement. To accommodate for high-throughput screening, this method was scaled down from petri plates to 6-well plates. To set up the test, an agar plug was placed at the bottom of each well of the sterile 6-well plate. A single coupon was placed with a pair of sterile forceps at the center of the agar plug (on top) with the painted surface facing upwards. Fungal inoculums were prepared by mixing equal concentrations (1×10^6 cfu/ml) and equal volumes (depending on number of samples to be tested) of like growing organisms. For Flumetsulam+various IT synergy study, three pools of mixed fungi were prepared as the test inoculum. Cladosporium herbarum was mixed with Aureobasidium pullulans; Aspergillus niger was mixed with Penicillium funiculosum and Alternaria alternata was mixed with Trichoderma viride. For Diclosulam+various IT synergy study, all above fungi were mixed as a single pool. […] The total percent area covered was evaluated and recorded at the end of each week after the 2nd week and recorded in increments of 5%.
as §5

[3] = system: Gloeocapsa sp. and Oscillatoria sp. (Gs + Os); experiment: Algal efficacy testing, modified ASTM 5589, paint film; conditions: for % inhibition: at the total conc given for the same sample; for Total conc: end-point concentration in paint used for SI
Experimental: as §1, §2, §3
(§6) In Flumetsulam+various IT synergy study, three pool of mixed algae were prepared as the test inoculum, Gloeocapsa sp. and Oscillatoria sp. a mix of cyanobacteria grown on BG-11 media; Chlorella sp., Chlorella kessleri, and Nostoc commune are unicellular chlorphytes that were mixed and grown on Bold media; Trentepohlia aurea, Tretepohlia odorata, and Calotrix parientina are filamentous algae that were mixed and grown on Bold media.
as §4
(§7) Each well that contains a tested coupon was inoculated with 400 μl of organism mixture (1×10^6 cfu/ml) making sure that the whole surface (paint film as well as the agar surrounding it) was evenly covered. The plates were incubated at room temp (25° C.-26° C.) with cyclic exposure to light (OTT-Lite model # OTL4012P, 40 Watt, 26 KLumen) and dark phases, for a period of four weeks. The total area covered was evaluated at the end of each week according to percent area covered in 5% increments.
(§8) The SI is calculated based on F. C. Kull et.

[4] = system: Cladosporium herbarum mixed with Aureobasidium pullulans (ApCh); experiment: Fungal efficacy testing, modified ASTM 5590, paint film (Flumetsulam study); conditions: for % inhibition: at the total conc given for the same sample; for Total conc: end-point concentration in paint used for SI, four weeks, 30 C
Experimental: as §1, §2
(§9) ASTM 5590 is a standard accelerated test method for determining resistance of various coatings (including paints) to fungal defacement. To accommodate for high-throughput screening, this method was scaled down from petri plates to 6-well plates. To set up the test, an agar plug was placed at the bottom of each well of the sterile 6-well plate. A single coupon was placed with a pair of sterile forceps at the center of the agar plug (on top) with the painted surface facing upwards. Fungal inoculums were prepared by mixing equal concentrations (1×10^6 cfu/ml) and equal volumes (depending on number of samples to be tested) of like growing organisms. For Flumetsulam+various IT synergy study, three pools of mixed fungi were prepared as the test inoculum. Cladosporium herbarum was mixed with Aureobasidium pullulans; Aspergillus niger was mixed with Penicillium funiculosum and Alternaria alternata was mixed with Trichoderma viride. For Diclosulam+various IT synergy study, all above fungi were mixed as a single pool. Each well was inoculated with 400 μl of organism mixture (1×10^6 cfu/ml) making sure that the whole surface (paint film as well as the agar surrounding it) was evenly covered. The plates were incubated at 30° C. in presence of moisture, for a period of four weeks. The total percent area covered was evaluated and recorded at the end of each week after the 2nd week and recorded in increments of 5%.
as §8

[5] = system: Aspergillus niger mixed with Penicillium funiculosum (AnPf); experiment: as above; conditions: for % inhibition: at the total conc given for the same sample; for Total conc: end-point concentration in paint used for SI, four weeks, 30 C
Experimental: as §1, §2, §9, §8

[6] = system: Alternaria alternata mixed with Trichoderma viride (AaTv); experiment: as above; conditions: for % inhibition: at the total conc given for the same sample; for Total conc: end-point concentration in paint used for SI, four weeks, 30 C
Experimental: as §1, §2, §9, §8

[7] = system: Chlorella sp., Chlorella kessleri, and Nostoc commune (Cs + Ck + Nc); experiment: Algal efficacy testing, modified ASTM 5589, paint film (Flumetsulam study); conditions: for % inhibition: at the total conc given for the same sample; for Total conc: end-point concentration in paint used for SI, four weeks
Experimental: as §1, §2, §3, §6, §7, §8

[8] = system: Trentepohlia aurea, Tretepohlia odorata, and Calotrix parientina (Cp + To + Ta); experiment: as above; conditions: for % inhibition: at the total conc given for the same sample; for Total conc: end-point concentration in paint used for SI, four weeks
Experimental: as §1, §2, §3, §6, §7, §8

Structure (SMILES) | % inhibition [1] [%] | Total conc [1] [ppm] | % inhibition [2] [%] | Total conc [2] [ppm] | % inhibition ([3]; Diclosulam study) [%] | Total conc ([3]; Diclosulam study) [ppm] | % inhibition [4] [%] | Total conc [4] [ppm] | % inhibition [5] [%] | Total conc [5] [ppm] | % inhibition [6] [%] | Total conc [6] [ppm] | % inhibition [7] [%] | Total conc [7] [ppm] | % inhibition [8] [%] | Total conc [8] [ppm] | % inhibition ([3]; Flumetsulam study) [%] | Total conc ([3]; Flumetsulam study, four weeks) [ppm]
CCOc1nc(F)cc2nc(S(=O)(=O)Nc3c(Cl)cccc3Cl)nn12 [Diclosulam, N-(2,6-dichlorophenyl)-5-ethoxy-7-fluoro[1,2,4]triazolo[1,5-c]pyrimidine-2-sulfonamide] | 100 | 1750 | 0 | 3500 | 90 | 875 |  |  |  |  |  |  |  |  |  |  |  | 
Cc1ccn2nc(S(=O)(=O)Nc3c(F)cccc3F)nc2n1 [Flumetsulam, N-(2,6-difluorophenyl)-5-methyl[1,2,4]triazolo[1,5-a]pyrimidine-2-sulfonamide] |  |  |  |  |  |  | 50 | 3500 | 90 | 1750 | 0 | 3500 | 100 | 2625 | 75 | 1750 | 90 | 2625
c1ccc2[nH]c(-c3cscn3)nc2c1 [TBZ, thiabendazole] | 100 | 1250 | 60 | 625 | 85 | 1250 | 100 | 625 | 100 | 625 | 100 | 625 | 100 | 2500 | 90 | 3750 | 85 | 3750
